Reference: PubChem BioAssay (NCI)
Values joined by “and” are separate entries in the source; they are usually repeats but may differ in a detail not shown here. Equal entries are not always repeated.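 These data come from cells grown in 96-well plates and exposed to compound for 48 hours at five concentrations. Abbreviation: GI50, concentration required for 50% inhibition of growth. TGI: total growth inhibition.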

Experiments:
Assay in all cases: NCI-60 cell line screen, 48 h
HOP-92 NSCLC = test system: HOP-92 NSCLC
SF-295 CNS = test system: SF-295 CNS
SNB-19 CNS = test system: SNB-19 CNS
CCRF-CEM leukemia = test system: CCRF-CEM leukemia
HOP-62 NSCLC = test system: HOP-62 NSCLC
ACHN renal = test system: ACHN renal
NCI-H460 lung = test system: NCI-H460 lung
SK-MEL-28 melanoma = test system: SK-MEL-28 melanoma
RXF 393 renal = test system: RXF 393 renal

| SMILES | TGI (HOP-92 NSCLC) | TGI (SF-295 CNS) | TGI (SNB-19 CNS) | TGI (CCRF-CEM leukemia) | TGI (HOP-62 NSCLC) | TGI (ACHN renal) | TGI (NCI-H460 lung) | TGI (SK-MEL-28 melanoma) | GI50 (RXF 393 renal) | TGI (RXF 393 renal) | GI50 (SF-295 CNS) | GI50 (SNB-19 CNS) | GI50 (CCRF-CEM leukemia) | GI50 (HOP-62 NSCLC) | GI50 (ACHN renal) | GI50 (NCI-H460 lung) | GI50 (SK-MEL-28 melanoma) | GI50 (HOP-92 NSCLC) |
| --- | --- | --- | --- | --- | --- | --- | --- | --- | --- | --- | --- | --- | --- | --- | --- | --- | --- | --- |
| CCCCOC(=O)NC(=O)c1cn(C2CCCCC2)c(=O)[nH]c1=O | 55.1 µM | > 100 µM | 69.3 µM | > 100 µM | 65.9 µM | 67.3 µM | > 100 µM | > 100 µM |  |  |  |  |  |  |  |  |  |  |
| N.N.O=C([O-])P(=O)([O-])[O-].[Na+].[Pt+4] |  | > 100 µM | > 100 µM | > 100 µM | > 100 µM | > 100 µM | > 100 µM | > 100 µM | > 100 µM | > 100 µM | > 100 µM | > 100 µM | > 100 µM | > 100 µM | > 100 µM | > 100 µM | > 100 µM |  |
| COc1ncc(-c2ccc3ncnc(Nc4cccc(Cl)c4)c3c2)cc1NS(=O)(=O)CCN1CCOCC1 |  |  | > 100 µM | > 100 µM |  |  | > 100 µM |  |  |  |  | 0.945 µM | 0.799 µM |  |  | 0.393 µM |  |  |
| CCO/N=C(/N)c1ncn(Cc2ccccc2)c1NCC(OCC)OCC |  | > 100 µM | > 100 µM | > 100 µM | > 100 µM | > 100 µM | > 100 µM |  |  | 99.5 µM |  |  |  |  |  |  |  |  |
| Cc1[nH]c2ccccc2c1C1Cc2ccccc2N1C(=O)/C(Cl)=C/c1ccccc1 (stereo unspecified) | > 100 µM | > 100 µM | > 100 µM | > 100 µM | > 100 µM | > 100 µM | > 100 µM | > 100 µM |  | 89 µM |  |  |  |  |  |  |  |  |
| CCOc1ccc2c(c1)[n+]([O-])c(-c1nc3ccccc3s1)c(N)[n+]2[O-] | 70.1 µM | > 100 µM | > 100 µM | > 100 µM | > 100 µM | > 100 µM | > 100 µM | > 100 µM |  |  |  |  |  |  |  |  |  |  |
| COc1ccc2nc3cc(Cl)ccc3c(NCCN)c2c1 | 2.95 µM |  |  | 5.39 µM | 3.03 µM | 3.17 µM |  |  |  |  |  |  | 1.42 µM | 1.58 µM | 1.58 µM |  |  | 1.47 µM |
| COC(=O)C(=O)C(C(=O)C=C(C)C)C(=O)C(=O)Nc1ccc(C)cc1C (stereo unspecified) |  | > 100 µM | > 100 µM | > 100 µM | > 100 µM | > 100 µM | > 100 µM | > 100 µM |  | > 100 µM |  |  |  |  |  |  |  |  |
| CC(C)N1CN(C(C(=O)N[C@@H]2C(=O)N3C2SC(C)(C)C3C(=O)O)c2ccccc2)CSC1=S (stereo partly specified) | > 100 µM | > 100 µM | > 100 µM | > 100 µM | > 100 µM | > 100 µM | > 100 µM | > 100 µM |  |  |  |  |  |  |  |  |  |  |
| CCc1ccc(Nc2ccc([N+](=O)[O-])cc2[N+](=O)[O-])cc1 |  | > 100 µM |  | > 100 µM | > 100 µM | > 100 µM | > 100 µM | > 100 µM |  | > 100 µM |  |  |  |  |  |  |  |  |
| COc1ccc(/C=C\c2cc(OC)c(OC)c(OC)c2)cc1OC(=O)NCCN(C)C | 0.00065 µM and < 0.0393 µM |  | > 100 µM |  | > 100 µM | > 41.7 µM | 0.00485 µM | 43.1 µM |  | < 0.0001 µM |  |  |  |  |  |  | < 0.0001 µM |  |
| C/C(=C1/CCC/C(=C(/C)c2ccccc2)C1=O)c1ccccc1 | > 100 µM | > 100 µM | > 100 µM | 49.8 µM |  | > 100 µM | > 100 µM | > 100 µM |  | 47.6 µM |  |  |  |  |  |  |  |  |
| COc1cccc(N2C(=O)[C@H]3CC(C)c4c([nH]c5ccccc45)[C@H]3C2=O)c1 (stereo partly specified) | 80.5 µM | 67.6 µM | > 100 µM | > 100 µM | 42.5 µM |  | > 100 µM | > 100 µM |  | 38.8 µM |  |  |  |  |  |  |  |  |
| C/C=C1/C(=C/c2[nH]c(/C=c3\[nH]/c(=C/C4=NC(=O)C(CC)=C4C)c(C)c3CCC(=O)O)c(CCC(=O)O)c2C)NC(=O)C1C (stereo unspecified) | > 150 µg/mL |  | > 150 µg/mL | > 150 µg/mL | > 150 µg/mL | > 150 µg/mL | > 150 µg/mL | > 150 µg/mL | > 150 µg/mL | > 150 µg/mL |  | > 150 µg/mL | > 150 µg/mL | > 150 µg/mL | > 150 µg/mL | > 150 µg/mL | > 150 µg/mL | 103 µg/mL |
| COC(C(O)c1ccc2c(c1)OCO2)P(=O)(c1ccccc1)c1ccccc1 (stereo unspecified) | > 100 µM |  | > 100 µM | > 100 µM | > 100 µM | > 100 µM | > 100 µM | > 100 µM |  | > 100 µM |  |  |  |  |  |  |  |  |
| COc1ccc(CNc2nc3cc(C(F)(F)F)ccc3nc2C)cc1OC |  | > 100 µM | > 100 µM | > 100 µM | 69.9 µM |  | > 100 µM | > 100 µM |  |  |  |  |  |  |  |  |  |  |
| COC1=CC2(C=CC1=O)c1cc(OC)c(OC)cc1CCN2C(=O)c1ccccc1 (stereo unspecified) | > 100 µM | > 100 µM | > 100 µM | > 100 µM |  | > 100 µM |  | > 100 µM |  | > 100 µM |  |  |  |  |  |  |  |  |
| COC(=O)c1cc(C)c(C)c2c1NC(=O)CNC2=O |  | > 100 µM |  | > 100 µM | > 100 µM | > 100 µM | > 100 µM | > 100 µM |  | > 100 µM |  |  |  |  |  |  |  |  |
| CC(=O)N1C/C(=C\c2ccc(N(C)C)cc2)C(=O)/C(=C/c2ccc(N(C)C)cc2)C1 | > 100 µM | > 100 µM | > 100 µM | > 100 µM | > 100 µM | > 100 µM |  | > 100 µM |  | > 100 µM |  |  |  |  |  |  |  |  |
